Where “and” joins values, the source holds several entries; their conditions need not be identical. Equal entries are not always repeated. Inconclusive results and toxic doses are left out. Rule for the calls: active = survival T/C of 150% or more; inactive = T/C below 125% in these data.
Test system: P388 leukemia ip, CD2F1 mice, survival T/C
Test: NCI In Vivo Anticancer Drug Screen. Data for tumor model P388 Leukemia (intraperitoneal) in CD2F1 (CDF1) mice
Conditions: endpoint: median survival time, higher = longer survival
Method in brief: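 Mice carrying the transplanted tumor received test compound or vehicle. Survival was recorded in each group, and the value is the treated-group measurement divided by that of the vehicle-treated control group.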

[1] = dose: 12.5 mg/kg/injection, schedule: Q01DX005 (ip), vehicle: water
[2] = dose: 25.0 mg/kg/injection, schedule: Q01DX005 (ip), vehicle: water
[3] = dose: 50.0 mg/kg/injection, schedule: Q01DX005 (ip), vehicle: water
[4] = dose: 100.0 mg/kg/injection, schedule: Q01DX005 (ip), vehicle: water
[5] = dose: 60.0 mg/kg/injection, schedule: Q01DX005 (ip), vehicle: saline with Tween-80
[6] = dose: 120.0 mg/kg/injection, schedule: Q01DX005 (ip), vehicle: saline with Tween-80
[7] = dose: 240.0 mg/kg/injection, schedule: Q01DX005 (ip), vehicle: saline with Tween-80
[8] = dose: 50.0 mg/kg/injection, schedule: Q01DX005 (ip), vehicle: saline with Tween-80
[9] = dose: 100.0 mg/kg/injection, schedule: Q01DX005 (ip), vehicle: saline with Tween-80
[10] = dose: 200.0 mg/kg/injection, schedule: Q01DX005 (ip), vehicle: saline with Tween-80
[11] = dose: 50.0 mg/kg/injection, schedule: Q01DX009 (ip), vehicle: Klucel (hydroxypropylcellulose) (HPC)
[12] = dose: 100.0 mg/kg/injection, schedule: Q01DX009 (ip), vehicle: Klucel (hydroxypropylcellulose) (HPC)
[13] = dose: 200.0 mg/kg/injection, schedule: Q01DX009 (ip), vehicle: Klucel (hydroxypropylcellulose) (HPC)
[14] = dose: 12.5 mg/kg/injection, schedule: Q01DX009 (ip), vehicle: saline with Tween-80
[15] = dose: 25.0 mg/kg/injection, schedule: Q01DX009 (ip), vehicle: saline with Tween-80
[16] = dose: 50.0 mg/kg/injection, schedule: Q01DX009 (ip), vehicle: saline with Tween-80
[17] = dose: 100.0 mg/kg/injection, schedule: Q01DX009 (ip), vehicle: saline with Tween-80
[18] = dose: 200.0 mg/kg/injection, schedule: Q01DX009 (ip), vehicle: saline with Tween-80
[19] = dose: 50.0 mg/kg/injection, schedule: Q01DX005 (ip), vehicle: Klucel (hydroxypropylcellulose) (HPC)
[20] = dose: 100.0 mg/kg/injection, schedule: Q01DX005 (ip), vehicle: Klucel (hydroxypropylcellulose) (HPC)
[21] = dose: 200.0 mg/kg/injection, schedule: Q01DX005 (ip), vehicle: Klucel (hydroxypropylcellulose) (HPC)

Measured: T/C

CCN1c2ccccc2CC(CCN(C(C)C)C(C)C)(C(N)=O)c2ccccc21 (centres undefined)
inactive: dose: 25.0 mg/kg/injection, schedule: Q04DX002 (ip), vehicle: saline with Tween-80 95 % of control | dose: 50.0 mg/kg/injection, schedule: Q04DX002 (ip), vehicle: saline with Tween-80 95 % of control | dose: 100.0 mg/kg/injection, schedule: Q04DX002 (ip), vehicle: saline with Tween-80 95 % of control

O=S(=O)(O)SCCNCCc1ccccn1
inactive: [1] 104 % of control | [2] 109 % of control | [3] 109 % of control | [4] 107 % of control

ClC(Cl)(Cl)C(c1ccc(Br)cc1)c1ccc(Br)cc1
inactive: [5] 95 % of control | [6] 94 % of control | [7] 95 % of control

OC1c2ccccc2C(O)c2c1ccc1c2CN(Cc2ccccc2)CC1 (centres undefined)
inactive: dose: 60.0 mg/kg/injection, schedule: Q01DX005 (ip), vehicle: Klucel (hydroxypropylcellulose) (HPC) 89 % of control | dose: 120.0 mg/kg/injection, schedule: Q01DX005 (ip), vehicle: Klucel (hydroxypropylcellulose) (HPC) 92 % of control | dose: 240.0 mg/kg/injection, schedule: Q01DX005 (ip), vehicle: Klucel (hydroxypropylcellulose) (HPC) 92 % of control

c1ccc(Cc2ncnc3nc[nH]c23)cc1
inactive: dose: 2.5 mg/kg/injection, schedule: Q01DX009 (ip), vehicle: saline with Tween-80 111 % of control | dose: 5.0 mg/kg/injection, schedule: Q01DX009 (ip), vehicle: saline with Tween-80 111 % of control | dose: 10.0 mg/kg/injection, schedule: Q01DX009 (ip), vehicle: saline with Tween-80 111 % of control | dose: 20.0 mg/kg/injection, schedule: Q01DX009 (ip), vehicle: saline with Tween-80 105 % of control and 107 % of control and 110 % of control | dose: 40.0 mg/kg/injection, schedule: Q01DX009 (ip), vehicle: saline with Tween-80 98 % of control and 103 % of control | dose: 80.0 mg/kg/injection, schedule: Q01DX009 (ip), vehicle: saline with Tween-80 110 % of control and 111 % of control and 91 % of control | dose: 160.0 mg/kg/injection, schedule: Q01DX009 (ip), vehicle: saline with Tween-80 95 % of control

Cn1c2ccccc2c(=Nc2ccc(S(=O)(=O)N=C(N)N)cc2)c2ccccc21
inactive: [8] 106 % of control | [9] 96 % of control

O=C(O)C(Cc1ccccc1)NC(c1ccccc1)P(=O)(O)O (centres undefined)
inactive: [5] 101 % of control | [6] 99 % of control | [7] 105 % of control

CCOC(=O)C1CC1C1=C(C)c2cc3[n-]c(cc4nc(cc5[n-]c(cc1n2)c(C)c5CCC(=O)OC)C(CCC(=O)OC)=C4C)c(C)c3C1CC1C(=O)OCC.[Zn+2] (centres undefined)
inactive: [8] 95 % of control | [9] 89 % of control | [10] 89 % of control

O=C1NN2CCN=C2c2ncccc21
inactive: [5] 104 % of control | [6] 94 % of control | [7] 87 % of control

C[S+](C)CC[N+](C)(C)C
inactive: dose: 12.5 mg/kg/injection, schedule: Q01DX009 (ip), vehicle: water 104 % of control | dose: 25.0 mg/kg/injection, schedule: Q01DX009 (ip), vehicle: water 108 % of control | dose: 50.0 mg/kg/injection, schedule: Q01DX009 (ip), vehicle: water 110 % of control

CC(C)CC(NC(=O)C(Cc1ccccc1)NC(=O)CNC(=O)CNC(=O)C(N)Cc1ccc(O)cc1)C(=O)O (centres undefined)
inactive: [1] 110 % of control | [2] 103 % of control | [3] 95 % of control | [4] 98 % of control | dose: 200.0 mg/kg/injection, schedule: Q01DX005 (ip), vehicle: water 100 % of control

Cn1c(N)c(C(=O)N2CCN(c3ccccc3)CC2)c(=O)n(C)c1=O
inactive: [11] 94 % of control | [12] 97 % of control | [13] 91 % of control

S=C(Nc1ccccc1)NC1SNC(=Nc2ccccc2)N1c1ccccc1 (centres undefined)
inactive: [8] 106 % of control | [9] 95 % of control | [10] 95 % of control

CC1(OC(=O)c2ccccc2)CC2(CCCCC2)N=N1 (centres undefined)
inactive: [14] 113 % of control | [15] 105 % of control | [16] 112 % of control | [17] 107 % of control | [18] 105 % of control

CC(=O)Oc1ccc(C2c3c(n(C(C)=O)c4ccccc34)C(=O)NN2C(C)=O)cc1 (centres undefined)
inactive: [19] 100 % of control | [20] 109 % of control | [21] 112 % of control

CCCCCCCC#CC1(CCCC)Sc2ccccc2N1C (centres undefined)
inactive: [5] 105 % of control | [6] 110 % of control | [7] 113 % of control

NC(=S)SCCC(=O)N1CCCC1
inactive: dose: 25.0 mg/kg/injection, schedule: Q01DX005 (ip), vehicle: Klucel (hydroxypropylcellulose) (HPC) 103 % of control | [19] 97 % of control | [20] 99 % of control | [21] 101 % of control

CC(=O)C(=Cc1ccc(O)cc1)C(C)=O
inactive: [8] 100 % of control | [9] 103 % of control | [10] 103 % of control

CC(/C=C/c1ccccc1)=N\NC(=O)c1ccc(O)cc1
inactive: [19] 101 % of control | [20] 97 % of control | [21] 93 % of control

CN(C)c1nc(NC(=O)NC(=O)c2c(F)cccc2F)nc(N(C)C)n1
inactive: dose: 6.25 mg/kg/injection, schedule: Q01DX009 (ip), vehicle: saline with Tween-80 101 % of control | [14] 111 % of control | [15] 104 % of control

O=C(Nc1ccccc1)Oc1ccc(/C=N/S(=O)(=O)c2cccc([N+](=O)[O-])c2)cc1
inactive: [16] 96 % of control | [17] 98 % of control | [18] 118 % of control

Cc1cc(C)c(C#N)c(SC(C(=O)NC(C)(C)C)c2ccccc2)n1 (centres undefined)
inactive: [19] 88 % of control | [20] 87 % of control | [21] 87 % of control

S=C(N/N=C\c1nc2ccccc2c2ccccc12)Nc1ccc(Br)cc1
inactive: dose: 100.0 mg/kg/injection, schedule: Q04DX002 (ip), vehicle: Klucel (hydroxypropylcellulose) (HPC) 93 % of control | dose: 200.0 mg/kg/injection, schedule: Q04DX002 (ip), vehicle: Klucel (hydroxypropylcellulose) (HPC) 93 % of control | dose: 400.0 mg/kg/injection, schedule: Q04DX002 (ip), vehicle: Klucel (hydroxypropylcellulose) (HPC) 96 % of control

CSc1cccc(NC(=O)Nc2c(C)n(C)n(-c3ccccc3)c2=O)c1
inactive: [11] 92 % of control | [12] 96 % of control | [13] 88 % of control

Nc1ccc2cc(Cl)[nH]c(=O)c2c1
inactive: [19] 100 % of control | [20] 94 % of control | [21] 97 % of control

CN(C)P1(=O)OCC(C)(C)CN1c1ccccc1 (centres undefined)
inactive: dose: 100.0 mg/kg/injection, schedule: Q04DX002 (ip), vehicle: saline 96 % of control | dose: 200.0 mg/kg/injection, schedule: Q04DX002 (ip), vehicle: saline 95 % of control | dose: 400.0 mg/kg/injection, schedule: Q04DX002 (ip), vehicle: saline 100 % of control

CC1(O)c2ccccc2[P+](C)(c2ccccc2)c2ccccc21 (centres undefined)
inactive: [14] 111 % of control | [15] 109 % of control

CC(C(/C=N/NC(N)=S)=N/NC(N)=S)N1C(=O)c2ccccc2C1=O (centres undefined)
inactive: [5] 97 % of control | [6] 94 % of control | [7] 88 % of control

N#CC(C#N)C(=O)c1ccccc1
inactive: dose: 50.0 mg/kg/injection, schedule: Q04DX003 (ip), vehicle: saline 103 % of control | dose: 100.0 mg/kg/injection, schedule: Q04DX003 (ip), vehicle: saline 102 % of control | dose: 200.0 mg/kg/injection, schedule: Q04DX003 (ip), vehicle: saline 95 % of control | dose: 400.0 mg/kg/injection, schedule: Q04DX003 (ip), vehicle: saline 95 % of control

O=C(O)c1ccc(OCCOc2ccccc2)c(Cl)c1
inactive: [5] 98 % of control | [6] 95 % of control | [7] 93 % of control

CCCC1OC(/C=C/c2ccccc2)OCC1CC (centres undefined)
inactive: [17] 101 % of control and 108 % of control and 109 % of control | [18] 101 % of control and 116 % of control (2×) | dose: 400.0 mg/kg/injection, schedule: Q01DX009 (ip), vehicle: saline with Tween-80 116 % of control and 120 % of control

NCC1OC(OC2C(CO)OC(OC3C(O)C(N)CC(N)C3OC3OC(CN)C(O)C(O)C3N)C2O)C(N)C(O)C1O (centres undefined)
inactive: dose: 100.0 mg/kg/injection, schedule: Q01DX001 (ip), vehicle: saline 100 % of control | dose: 200.0 mg/kg/injection, schedule: Q01DX001 (ip), vehicle: saline 96 % of control
